Each structure is given as a SMILES string.

As usually defined, the viability is a read-out of living cells in per cent, often relative to untreated cells.

This series can be described thus: in vitro. The conditions noted are these: human, hela cells, % viability.
Consider `O=C(O)CCC(=O)N1CCCc2ccccc21` [CBK051167], for which the viability at 28.5 h, 10 µM stood at 92.6%. The result for `CN1CCN(S(=O)(=O)c2ccc(C(C)(C)C)cc2)CC1` [CBK051237] reads 106%. For `CCOC(=O)C1CCN(S(=O)(=O)c2cccc3cccnc23)CC1` [CBK051242], the viability at 28.5 h, 10 µM was found to be 92.5%. Take `COC(=O)C1CCCCN1S(=O)(=O)c1cccc2cccnc12` (stereo not drawn) [CBK051244]: the viability at 28.5 h, 10 µM stood at 82.2%. On to `COc1ccc([C@@]23CC[C@@H](NC(=O)Nc4ccc(OC)c(C(F)(F)F)c4)C[C@@H]2N(C)CC3)cc1OC` [CBK051268T], for which the viability at 28.5 h, 10 µM is 107%. On to `COc1ccc([C@@]23CC[C@@H](NC(=O)Nc4cccc(-c5nn[nH]n5)c4)C[C@@H]2N(C)CC3)cc1OC` [CBK051273T], for which the viability at 28.5 h, 10 µM came out at 87.8%. On to `COc1ccc(CO)cc1OCc1ccccc1` [CBK051334], for which the viability at 28.5 h, 10 µM came to 110%. In the case of `O=S(=O)(c1cc(Cl)sc1Cl)N1CCCCC1CO` (stereo not drawn) [CBK051422], the viability at 28.5 h, 10 µM came to 87.2%. The result for `CC(C)(C)c1ccc([S+]([O-])c2cncc(N3CCNCC3)n2)cc1` (stereo not drawn) [CBK051434C] reads 88.4%. `Cc1cc(F)c(S(N)(=O)=O)cc1NC(=O)c1ccc(C(F)(F)F)cc1` [CBK051448]: the viability at 28.5 h, 10 µM is 104%. With `COCC1=C(C(=O)OC)[C@H](c2ccc(F)c(F)c2)N(C(=O)NCCCN2CCC(c3cccc(NC(C)=O)c3)CC2)C(=O)N1` [CBK051451C], the viability at 28.5 h, 10 µM came to 93.5%. Consider `c1ccc(CCN2CCC(c3nc(-c4ccccc4)no3)CC2)cc1` [CBK051454], for which the viability at 28.5 h, 10 µM was determined as 89.8%. On to `COc1cccc(-c2noc(C3CCN(CCc4ccccc4)CC3)n2)c1` [CBK051455], for which the viability at 28.5 h, 10 µM is 99.7%. `Fc1ccc(-c2noc(C3CCN(CCc4ccccc4)CC3)n2)cc1` [CBK051457]: the viability at 28.5 h, 10 µM amounted to 91.3%. Turning to `COc1cccc(-c2noc(C3CCN(CCc4ccc(F)cc4)CC3)n2)c1` [CBK051461], the viability at 28.5 h, 10 µM turned out to be 121%. Turning to `Fc1ccc(CCN2CCC(c3nc(-c4cccnc4)no3)CC2)cc1` [CBK051464], the viability at 28.5 h, 10 µM was determined as 118%. Turning to `CC(=O)c1ccc(S(=O)(=O)N2CCCCC2CNC(=O)c2ccco2)cc1` (stereo not drawn) [CBK051472], the viability at 28.5 h, 10 µM was found to be 103%.

`Cc1cc(F)c(S(N)(=O)=O)cc1NC(=O)c1cccc(Br)c1` [CBK051488]: the viability at 28.5 h, 10 µM was 90.9%. On to `O=C(c1nn2c(C(F)(F)F)cc(-c3ccccc3)nc2c1Br)N1CCCCC1` [CBK051497], for which the viability at 28.5 h, 10 µM amounted to 97.6%.

On to `CCCNC(=O)c1nn2c(C(F)(F)F)cc(-c3ccccc3)nc2c1Cl` [CBK051499], for which the viability at 28.5 h, 10 µM amounted to 110%. Then `COc1cccc(OC)c1OCCN1CCC(CNC(=O)Nc2cccc(C(F)(F)F)c2)CC1` [CBK051512T], with 96.7%. As to `COc1cc(NC(=O)NCC2CCN(CCOc3c(OC)cccc3OC)CC2)cc(OC)c1` [CBK051514], the viability at 28.5 h, 10 µM worked out at 89.1%. Consider `COc1cccc(OC)c1OCCN1CCC(NC(=O)Nc2ccc(Cl)cn2)CC1` [CBK051515], for which the viability at 28.5 h, 10 µM stood at 94.4%. With `N#Cc1cccc(S(=O)(=O)N2CCCCC2CO)c1` (stereo not drawn) [CBK051524], the viability at 28.5 h, 10 µM turned out to be 100%. On to `CNC(=O)C1CCN(S(=O)(=O)c2ccc(C(C)(C)C)cc2)CC1` [CBK051544], for which the viability at 28.5 h, 10 µM is 90.3%. The result for `CC(C)(C)c1ccc(C(=O)N2CCN(C(=O)CN3CCOCC3)C2)cc1` [CBK051554C] reads 112%; that for `O=C(CN1CCOCC1)N1CCN(C(=O)c2ccc(C(F)(F)F)cc2)C1` [CBK051555C], 92.1%. In the case of `C[C@@H]1CN(C)CCN1c1nccnc1OCCOc1cccnc1OCCCCCN(C)C` [CBK051566], the viability at 28.5 h, 10 µM was found to be 103%. As for `COc1ccc(C)cc1S(=O)(=O)n1ccc2c(OC3CCCN(C)C3)nccc21` (stereo not drawn) [CBK051582C], the viability at 28.5 h, 10 µM came out at 85.3%. Turning to `COc1ccc([C@@]23CC[C@@H](NC(=O)Nc4ncc(Cl)s4)C[C@@H]2N(C)CC3)cc1OC` [CBK051620T], the viability at 28.5 h, 10 µM was 96.1%. `COc1ccc(C)cc1S(=O)(=O)Nc1ccc(O[C@@H]2CCNC2)c2ccccc12` [CBK051622C]: the viability at 28.5 h, 10 µM turned out to be 104%. Then `CS(=O)(=O)NCC1(c2ccccc2)CCN(S(=O)(=O)c2ccc(N3CCOCC3)nc2)CC1` [CBK051634], with 90%; and `c1cc2[nH]ccc2c(N2CCNCC2)n1` [CBK051673C], with 90.7%. The result for `COc1ccc([C@@]23CC[C@@H](NC(=O)Nc4ccc(F)c(F)c4)C[C@@H]2N(C(=O)CN)CC3)cc1OC` [CBK051679] reads 111%.

With `CC1CN(CC(=O)NC(C)(C)c2ccccc2)CC(C)N1` (stereo not drawn) [CBK051693], the viability at 28.5 h, 10 µM was 83.8%.

As for `Cc1nc(NCCCn2ccnc2)c2ccccc2n1` [CBK051987], the viability at 28.5 h, 10 µM is 95.1%.

As for `CCOC(=O)CSc1nc2ccccc2c(=O)n1Cc1ccccc1` [CBK054124], the viability at 28.5 h, 10 µM was 95.4%.

Turning to `Cn1c(SCC(=O)c2ccccc2)nc2ccccc2c1=O` [CBK055260], the viability at 28.5 h, 10 µM turned out to be 87.6%. With `COc1ccc([C@@]23CCCN(C(=O)Nc4ccc(C)c(F)c4)C[C@@H]2N(C)CC3)cc1OC` [CBK056680T], the viability at 28.5 h, 10 µM was 110%. Regarding `Cc1c(F)cccc1CNC1CCC(NC(=O)OC(C)(C)C)CC1` (stereo not drawn) [CBK056691], the viability at 28.5 h, 10 µM came out at 85%. `CC(C)(C)OC(=O)NCCNCc1ccccc1Br` [CBK056693]: the viability at 28.5 h, 10 µM was found to be 92.1%. Consider `CC(C)(C)OC(=O)NCCNCc1ccccc1C(F)(F)F` [CBK056695], for which the viability at 28.5 h, 10 µM came to 80%. For the compound `COc1ccc(F)c(CNCCNC(=O)OC(C)(C)C)c1` [CBK056699], the viability at 28.5 h, 10 µM was found to be 93.9%. The result for `Cc1c(F)cccc1CNCCNC(=O)OC(C)(C)C` [CBK056700] reads 95.7%. Turning to `CC(C)(C)OC(=O)NCc1ccc(CNCc2ccccc2Br)cc1` [CBK056701], the viability at 28.5 h, 10 µM was determined as 96.6%. Consider `CC(C)(C)OC(=O)NCc1ccc(CNCc2ccc(-c3ccccc3)cc2)cc1` [CBK056706], for which the viability at 28.5 h, 10 µM is 96.8%. Then `Cc1c(F)cccc1CNCc1ccc(CNC(=O)OC(C)(C)C)cc1` [CBK056708], with 103%. Regarding `Cc1cccc(CNCC2CCN(C(=O)OC(C)(C)C)CC2)n1` [CBK056713], the viability at 28.5 h, 10 µM came to 104%. In the case of `CC(C)(C)OC(=O)N1CCC(CNCc2cc(F)cc(F)c2)CC1` [CBK056715], the viability at 28.5 h, 10 µM turned out to be 119%.

Turning to `Cc1c(F)cccc1CNCC1CCN(C(=O)OC(C)(C)C)CC1` [CBK056717], the viability at 28.5 h, 10 µM was determined as 85.7%. As for `CC(C)(C)OC(=O)N1CCC(CNCc2c[nH]c(-c3ccccc3)n2)CC1` [CBK056718], the viability at 28.5 h, 10 µM was found to be 94.3%. On to `COc1ccc([C@@]23CC[C@@H](NS(=O)(=O)c4cccc5cccnc45)C[C@@H]2N(C)CC3)cc1OC` [CBK056849T], for which the viability at 28.5 h, 10 µM came out at 80.8%.

Consider `O=C(OCCC1SC(NC2CC3C=CC2C3)=NC1=O)c1cc(C(F)(F)F)cc(C(F)(F)F)c1` (stereo not drawn) [CBK056857T], for which the viability at 28.5 h, 10 µM was determined as 100%.

Consider `O=C(Nc1cnccn1)c1ccc(Cl)cc1Cl` [CBK056922], for which the viability at 28.5 h, 10 µM was 85.5%. For `CC(C)(C)OC(=O)NCCNC(=O)Nc1ccccc1C(F)(F)F` [CBK056940], the viability at 28.5 h, 10 µM came out at 98.6%.

With `CCCCOc1ccc(-c2ccc(C#N)cc2)cc1` [CBK056958], the viability at 28.5 h, 10 µM came to 93%.

With `COc1ccc2c(c1)CCCN2C(=O)c1sc2ccccc2c1Cl` [CBK056960], the viability at 28.5 h, 10 µM came out at 90.2%. Then `O=C(NCCc1ccncc1)c1cccs1` [CBK056969], with 107%; and `CN(C)C(=O)C(C)(C)Oc1cc(C(F)(F)F)n(C)n1` [CBK056980], with 94.2%.

In the case of `O=S(=O)(c1ccccc1)N1CCCC1c1cccs1` (stereo not drawn) [CBK057002], the viability at 28.5 h, 10 µM came to 110%. Consider `CSc1ccccc1NC(=O)c1cc(Cl)sc1Cl` [CBK057008], for which the viability at 28.5 h, 10 µM was 99.2%. Regarding `CC(C)(C)SCCNS(=O)(=O)c1ccc(Cl)c(Cl)c1` [CBK057015], the viability at 28.5 h, 10 µM is 92.1%. For the compound `COC(=O)c1sccc1NC(=O)/C=C/c1ccccc1` [CBK057041], the viability at 28.5 h, 10 µM came out at 115%. Turning to `N#Cc1c(F)cccc1NCc1cccnc1` [CBK057053], the viability at 28.5 h, 10 µM worked out at 116%. For the compound `CCOC(=O)N1CCN(S(=O)(=O)c2coc(C)c2C(=O)OC)CC1` [CBK057079], the viability at 28.5 h, 10 µM worked out at 94.7%. As for `COC(=O)c1cc(OC)c(OC)cc1NC(=O)C1CCC1C(=O)O` (stereo not drawn) [CBK057084], the viability at 28.5 h, 10 µM amounted to 82.5%. `OC(CNCc1cccs1)c1ccccc1` (stereo not drawn) [CBK057092]: the viability at 28.5 h, 10 µM was 90.8%. The result for `Cc1ccc(OCC(O)CN2CCC(C(N)=O)CC2)cc1C` (stereo not drawn) [CBK057100] reads 105%. As for `COC(=O)c1c(C)oc(C)c1S(=O)(=O)Nc1ccc(C(C)C)cc1` [CBK057115], the viability at 28.5 h, 10 µM was 88%. As to `O=C(/C=C/c1ccsc1)Nc1ccc(F)cc1` [CBK057139], the viability at 28.5 h, 10 µM was 93.9%. For the compound `O=C(O)C1CCC1C(=O)N1CCN(c2ccc(C(F)(F)F)cn2)CC1` (stereo not drawn) [CBK057147], the viability at 28.5 h, 10 µM was determined as 93.7%.

In the case of `O=S(=O)(c1cccs1)N1CCC2(CC1)OCCO2` [CBK057295], the viability at 28.5 h, 10 µM stood at 95.1%. As for `Cc1cc(C(=O)N(CCC#N)Cc2cccs2)no1` [CBK057316], the viability at 28.5 h, 10 µM came to 112%. Turning to `O=C(O)CCC(=O)N1CCN(c2ncccn2)CC1` [CBK057422], the viability at 28.5 h, 10 µM is 114%. Consider `O=C(O)CCC(=O)Nc1cc(C(F)(F)F)ccc1N1CCCC1` [CBK057434], for which the viability at 28.5 h, 10 µM turned out to be 94.2%.

With `CCCCNCCn1cnc2c(N)ncnc21` [CBK057447], the viability at 28.5 h, 10 µM was determined as 116%. As to `COC(=O)C(CCSC)NC(=O)c1ccc(C(F)(F)F)cc1` (stereo not drawn) [CBK057452], the viability at 28.5 h, 10 µM is 91.9%.

Take `O=C(O)C1CNC(=O)N1C(=O)OCc1ccccc1` (stereo not drawn) [CBK057462]: the viability at 28.5 h, 10 µM is 98.8%.

As to `Cc1ccc(NC2C=CS(=O)(=O)C2)cc1` (stereo not drawn) [CBK057487], the viability at 28.5 h, 10 µM is 89.5%. The result for `O=C(Nc1ccc(F)c(Cl)c1)c1cccnc1Sc1cccs1` [CBK057512] reads 89%; that for `O=C(NCCSCc1ccco1)C1CCC1` [CBK057516], 119%.

(Values after article PMC12040169 (PLOS Biology, 2025).)
